Like-named read-outs stand apart in the source and are kept apart here.
Test: Example 18 cynomolgus monkey PK study (SC and IM)
Assay type: in vivo, cynomolgus monkeys
Conditions: male, cynomolgus monkey, plasma, read-out: Example 18 plasma concentrations
Excerpt: Example 18 referenced herein was made in accordance with Synthesis B. Six male cynomolgus monkeys (+1 spare) were selected from the Testing Facility's colony of non-naïve animals. The animals were assigned to the study based on acceptable health as determined by a Testing Facility veterinarian. Six animals were selected and placed into two groups of three animals each. Fasting of the animals before or after dosing was not required.
[…] […] The animals were manually restrained for dosing and were not sedated. The dose sites were clipped of hair and wiped with alcohol before dosing. All dosing was performed as detailed in the study protocol and was completed without incident.
Blood samples were collected from the study animals as detailed in the sample collection Table 39 below.
Blood samples were collected by venipuncture of a cephalic vein. For PK, blood was transferred to a blood collection tube containing NaF/Na2EDTA anticoagulant, mixed by inversion, and maintained on wet ice until processing. The blood samples were centrifuged at 2200×g for 10 minutes at 5° C. to isolate plasma. The resulting plasma samples were transferred to individual polypropylene tubes in a 96-well plate format and immediately placed on dry ice until storage at nominally −20° C. prior to shipment for analysis.
The PK plasma samples were analyzed approximately every two weeks by the Testing Facility to determine the concentration of Example 18 (prodrug) and parent using an LC-MS/MS Research Grade Assay (RGA-1) with sensitivity to 0.1 ng/mL. Following interim review of sample analysis data, analysis for Example 18 (prodrug) was discontinued after the Day 57 sample collections. The bioanalytical report and sample concentration data are presented in Tables 40 and 41, and mean concentration-time profiles are shown in FIGS. 29 and 30

[1] = intramuscular, 20 mg/kg equivalent of EFdA, IM 20 mg/kg equivalent of EFdA, Monkey 2001
[2] = intramuscular, 20 mg/kg equivalent of EFdA, IM 20 mg/kg equivalent of EFdA, Monkey 2002
[3] = intramuscular, 20 mg/kg equivalent of EFdA, IM 20 mg/kg equivalent of EFdA, Monkey 2003
[4] = sc, 20 mg/kg, SC 20 mg/kg equivalent of EFdA, Mean
[5] = sc, 20 mg/kg, SC 20 mg/kg equivalent of EFdA, Monkey 1001
[6] = sc, 20 mg/kg, SC 20 mg/kg equivalent of EFdA, Monkey 1002 (column 3)
[7] = sc, 20 mg/kg, SC 20 mg/kg equivalent of EFdA, Monkey 1002

Question: With `C#C[C@]1(COC(=O)CCCCCCCCC)O[C@@H](n2cnc3c(N)nc(F)nc32)C[C@@H]1OC(=O)CCCCCCCCC` [Example 18, (2R,3S,5R)-5-(6-amino-2-fluoro-9H-purin-9-yl)-2-((decanoyloxy)methyl)-2-ethynyltetrahydrofuran-3-yl Decanoate] as the compound, how does the concentration at 0.208 days [1] read?
Answer: 51.3 ng/mL

Question: And the concentration at 0.292 days [1]?
Answer: 30.1 ng/mL

Question: What about the concentration at 1 days [1] of the same compound?
Answer: 6.89 ng/mL

Question: What about the concentration at 2 days [1] of the same compound?
Answer: 0.652 ng/mL

Question: What about the concentration at 3 days [1] of the same compound?
Answer: 0.379 ng/mL

Question: And the concentration at 8 days [1]?
Answer: 0.203 ng/mL

Question: What about the concentration at 10 days [1] of the same compound?
Answer: 0.156 ng/mL

Question: What about the concentration at 17 days [1] of the same compound?
Answer: 0.135 ng/mL

Question: And the concentration at 19 days [1]?
Answer: 0.119 ng/mL

Question: And the concentration at 22 days [1]?
Answer: 0.146 ng/mL

Question: What about the concentration at 29 days [1] of the same compound?
Answer: 0.155 ng/mL

Question: What about the concentration at 0.021 days [2] of the same compound?
Answer: 40.2 ng/mL

Question: And the concentration at 0.042 days [2]?
Answer: 82.6 ng/mL

Question: And the concentration at 0.125 days [2]?
Answer: 363 ng/mL

Question: And the concentration at 0.208 days [2]?
Answer: 692 ng/mL

Question: What about the concentration at 0.292 days [2] of the same compound?
Answer: 821 ng/mL

Question: What about the concentration at 1 days [2] of the same compound?
Answer: 110 ng/mL

Question: What about the concentration at 2 days [2] of the same compound?
Answer: 0.674 ng/mL

Question: What about the concentration at 3 days [2] of the same compound?
Answer: 0.533 ng/mL

Question: What about the concentration at 8 days [2] of the same compound?
Answer: 0.248 ng/mL

Question: What about the concentration at 10 days [2] of the same compound?
Answer: 0.251 ng/mL

Question: And the concentration at 17 days [2]?
Answer: 0.16 ng/mL

Question: What about the concentration at 19 days [2] of the same compound?
Answer: 0.149 ng/mL

Question: What about the concentration at 22 days [2] of the same compound?
Answer: 0.114 ng/mL

Question: What about the concentration at 25 days [2] of the same compound?
Answer: 0.125 ng/mL

Question: What about the concentration at 29 days [2] of the same compound?
Answer: 0.135 ng/mL

Question: And the concentration at 0.021 days [3]?
Answer: 1.93 ng/mL

Question: And the concentration at 0.042 days [3]?
Answer: 0.79 ng/mL

Question: What about the concentration at 0.125 days [3] of the same compound?
Answer: 3.31 ng/mL

Question: What about the concentration at 0.208 days [3] of the same compound?
Answer: 5.27 ng/mL

Question: And the concentration at 0.292 days [3]?
Answer: 6.42 ng/mL

Question: What about the concentration at 1 days [3] of the same compound?
Answer: 2.08 ng/mL

Question: What about the concentration at 2 days [3] of the same compound?
Answer: 0.387 ng/mL

Question: And the concentration at 3 days [3]?
Answer: 0.63 ng/mL

Question: What about the concentration at 8 days [3] of the same compound?
Answer: 0.171 ng/mL

Question: And the concentration at 10 days [3]?
Answer: 0.19 ng/mL

Question: What about the concentration at 17 days [3] of the same compound?
Answer: 0.154 ng/mL

Question: What about the concentration at 19 days [3] of the same compound?
Answer: 0.129 ng/mL

Question: What about the concentration at 22 days [3] of the same compound?
Answer: 0.113 ng/mL

Question: And the concentration at 25 days [3]?
Answer: 0.151 ng/mL

Question: What about the concentration at 46 days (intramuscular, 20 mg/kg equivalent of EFdA, IM 20 mg/kg equivalent of EFdA, Monkey 2003, 46 days) of the same compound?
Answer: 0.105 ng/mL

Question: What about the concentration at 0.021 days [4] of the same compound?
Answer: 0.235 ng/mL

Question: What about the concentration at 0.042 days [4] of the same compound?
Answer: 0.905 ng/mL

Question: What about the concentration at 0.125 days [4] of the same compound?
Answer: 3.94 ng/mL

Question: And the concentration at 0.208 days [4]?
Answer: 4.95 ng/mL

Question: And the concentration at 0.292 days [4]?
Answer: 4.53 ng/mL

Question: What about the concentration at 1 days [4] of the same compound?
Answer: 1.12 ng/mL

Question: And the concentration at 2 days [4]?
Answer: 0.405 ng/mL

Question: And the concentration at 3 days [4]?
Answer: 0.312 ng/mL

Question: What about the concentration at 8 days [4] of the same compound?
Answer: 0.117 ng/mL

Question: And the concentration at 10 days [4]?
Answer: 129 ng/mL

Question: And the concentration at 0.021 days [5]?
Answer: 49.4 ng/mL

Question: What about the concentration at 0.042 days [5] of the same compound?
Answer: 70.3 ng/mL

Question: And the concentration at 0.125 days [5]?
Answer: 149 ng/mL

Question: What about the concentration at 0.208 days [5] of the same compound?
Answer: 92.8 ng/mL

Question: And the concentration at 0.292 days [5]?
Answer: 146 ng/mL

Question: What about the concentration at 1 days [5] of the same compound?
Answer: 36.5 ng/mL

Question: And the concentration at 2 days [5]?
Answer: 0.734 ng/mL

Question: What about the concentration at 3 days [5] of the same compound?
Answer: 0.694 ng/mL

Question: And the concentration at 10 days [5]?
Answer: 0.146 ng/mL

Question: What about the concentration at 0.021 days [6] of the same compound?
Answer: 0.133 ng/mL

Question: And the concentration at 0.042 days [6]?
Answer: 0.179 ng/mL

Question: What about the concentration at 0.125 days [6] of the same compound?
Answer: 2.29 ng/mL

Question: And the concentration at 0.208 days [6]?
Answer: 1.91 ng/mL

Question: And the concentration at 0.292 days [6]?
Answer: 2.38 ng/mL

Question: And the concentration at 1 days [6]?
Answer: 0.641 ng/mL

Question: And the concentration at 2 days [6]?
Answer: 0.579 ng/mL

Question: What about the concentration at 3 days [6] of the same compound?
Answer: 0.396 ng/mL

Question: And the concentration at 8 days [6]?
Answer: 0.131 ng/mL

Question: What about the concentration at 10 days [6] of the same compound?
Answer: 0.146 ng/mL

Question: And the concentration at 0.021 days [7]?
Answer: 0.337 ng/mL

Question: And the concentration at 0.042 days [7]?
Answer: 1.63 ng/mL

Question: What about the concentration at 0.125 days [7] of the same compound?
Answer: 5.59 ng/mL

Question: What about the concentration at 0.208 days [7] of the same compound?
Answer: 7.99 ng/mL

Question: What about the concentration at 0.292 days [7] of the same compound?
Answer: 6.67 ng/mL

Question: And the concentration at 1 days [7]?
Answer: 1.6 ng/mL

Question: What about the concentration at 2 days [7] of the same compound?
Answer: 0.23 ng/mL

Question: And the concentration at 3 days [7]?
Answer: 0.228 ng/mL

Question: And the concentration at 8 days [7]?
Answer: 0.102 ng/mL

Question: What about the concentration at 10 days [7] of the same compound?
Answer: 0.111 ng/mL
